Activity calls are given as the source filed them. No cut-off for these calls is given here.
What was measured:
[1] = test system: Leptospira interrogans serovar Portlandvere; assay: Antimicrobial activity against Leptospira interrogans serovar Portlandvere infected golden Syrian hamster model of acute lethal leptospirosis assessed as survival at 5 mg/kg/day, ip once daily for 5 days administered 2 day after infection; format: functional; details: for survival at 5 mg/kg/day: route intraperitoneal
[2] = test system: Leptospira interrogans serovar Portlandvere; assay: Antimicrobial activity against Leptospira interrogans serovar Portlandvere infected golden Syrian hamster model of acute lethal leptospirosis assessed as survival at 50 mg/kg/day, ip once daily for 5 days administered 2 day after infection; format: functional; details: route intraperitoneal
[3] = test system: Leptospira interrogans serovar Portlandvere; assay: Antimicrobial activity against Leptospira interrogans serovar Portlandvere infected golden Syrian hamster model of acute lethal leptospirosis assessed as survival at 25 mg/kg/day, ip once daily for 5 days administered 2 day after infection; format: functional; details: route intraperitoneal
Syrian golden hamster = assay: Toxicity against Leptospira interrogans serovar Portlandvere infected golden Syrian hamster model of acute lethal leptospirosis assessed as induction of diarrhea at 50 mg/kg/day, ip once daily for 5 days administered 2 day after infection; format: organism-based, Mesocricetus auratus; set-up: route intraperitoneal; details: in vivo

In the case of `C[C@H]1c2cccc(O)c2C(=O)C2=C(O)[C@]3(O)C(=O)C(C(N)=O)=C(O)[C@@H](N(C)C)[C@@H]3[C@@H](O)[C@@H]21`, the Activity [1] is reported as “Active”.
With `O=C(O)c1cn(C2CC2)c2cc(N3CCNCC3)c(F)cc2c1=O` [CIPROFLOXACIN] the survival at 50 mg/kg/day [2] was 90%, the survival at 25 mg/kg/day [3] was 60% and the Activity [1] was “Active”.
With `COc1c(N2CCNC(C)C2)c(F)cc2c(=O)c(C(=O)O)cn(C3CC3)c12` (stereo unspecified) [GATIFLOXACIN] the survival at 50 mg/kg/day [2] was 60%, the survival at 25 mg/kg/day [3] was 100% and the survival at 5 mg/kg/day [1] was 90%. For the same compound, the Activity (Syrian golden hamster) was “Toxic”.
With `C[C@H]1COc2c(N3CCN(C)CC3)c(F)cc3c(=O)c(C(=O)O)cn1c23` [LEVOFLOXACIN] the survival at 50 mg/kg/day [2] was 95%, the survival at 25 mg/kg/day [3] was 95% and the survival at 5 mg/kg/day [1] was 40%.
